Measurements reported in PubChem BioAssay (NCI).
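Following 48 hours of exposure in 96-well plates, responses at five concentrations were used to interpolate endpoints linearly. GI50 marks 50% less growth. TGI denotes the concentration required for complete inhibition of growth.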

What was measured:
Test in all cases: NCI anticancer screen, dose series, 48 h
[1] = tested on: U251 CNS
[2] = tested on: DU-145 prostate
[3] = tested on: SK-OV-3 ovarian
[4] = tested on: OVCAR-4 ovarian
[5] = tested on: SK-MEL-28 melanoma
[6] = tested on: NCI-H23 lung
[7] = tested on: RPMI-8226 leukemia
[8] = tested on: HCT-116 colon
[9] = tested on: UACC-62 melanoma
[10] = tested on: RXF 393 renal
[11] = tested on: NCI-H460 lung
[12] = tested on: COLO 205 colon
[13] = tested on: SK-MEL-5 melanoma
[14] = tested on: T-47D breast
[15] = tested on: UO-31 renal
[16] = tested on: TK-10 renal
[17] = tested on: SW-620 colon
[18] = tested on: HS 578T breast
[19] = tested on: 786-0 renal
[20] = tested on: OVCAR-3 ovarian
[21] = tested on: MALME-3M melanoma
[22] = tested on: UACC-257 melanoma
[23] = tested on: A498 renal
[24] = tested on: MOLT-4 leukemia
[25] = tested on: EKVX NSCLC
[26] = tested on: SR leukemia
[27] = tested on: A549 NSCLC
[28] = tested on: SF-539 CNS
[29] = tested on: HT29 colon
[30] = tested on: MCF7 breast
[31] = tested on: CAKI-1 renal
[32] = tested on: BT-549 breast
[33] = tested on: LOX IMVI melanoma
[34] = tested on: KM12 colon
[35] = tested on: SF-268 CNS
[36] = tested on: HL-60(TB) leukemia
[37] = tested on: MDA-MB-231 breast
[38] = tested on: M14 melanoma
[39] = tested on: HOP-62 NSCLC
[40] = tested on: OVCAR-8 ovarian
[41] = tested on: NCI/ADR-RES ovarian
[42] = tested on: K-562 leukemia
[43] = tested on: IGROV1 ovarian
[44] = tested on: CCRF-CEM leukemia
[45] = tested on: HCT-15 colon
[46] = tested on: SN12C renal
[47] = tested on: SNB-19 CNS
[48] = tested on: NCI-H226 lung
[49] = tested on: ACHN renal
[50] = tested on: NCI-H522 lung
[51] = tested on: HOP-92 NSCLC
[52] = tested on: SNB-75 CNS
[53] = tested on: SK-MEL-2 melanoma
[54] = tested on: MDA-MB-435
[55] = tested on: HCC-2998 colon
[56] = tested on: SF-295 CNS
[57] = tested on: OVCAR-5 ovarian
[58] = tested on: PC-3 prostate

CCN1C(=O)N(CC)C2C1NN=c1s/c(=C\c3ccccc3)c(=O)n12 (stereo not drawn)
GI50 [1]: 316 nM | TGI [1]: > 100000 nM | GI50 [2]: 308 nM | TGI [2]: > 100000 nM | GI50 [3]: 311 nM | TGI [3]: > 100000 nM | GI50 [4]: 869 nM | TGI [4]: > 100000 nM | GI50 [5]: > 49100 nM | TGI [5]: > 100000 nM | GI50 [6]: 544 nM | TGI [6]: > 100000 nM | GI50 [7]: 389 nM | TGI [7]: > 72400 nM | GI50 [8]: 78.6 nM | TGI [8]: > 100000 nM | GI50 [9]: 59.6 nM | TGI [9]: > 100000 nM | GI50 [10]: 74.8 nM | TGI [10]: > 100000 nM | GI50 [11]: 210 nM | TGI [11]: > 100000 nM | GI50 [12]: 193 nM | TGI [12]: 657 nM | GI50 [13]: 147 nM | TGI [13]: 6110 nM | GI50 [14]: 519 nM | TGI [14]: > 100000 nM | GI50 [15]: 490 nM | TGI [15]: > 100000 nM | GI50 [16]: 32800 nM | TGI [16]: > 100000 nM | GI50 [17]: 80.8 nM | TGI [17]: > 100000 nM | GI50 [18]: 146 nM | TGI [18]: > 100000 nM | GI50 [19]: 874 nM | TGI [19]: > 100000 nM | GI50 [20]: 56.1 nM | TGI [20]: 354 nM | GI50 [21]: 1090 nM | TGI [21]: > 100000 nM | GI50 [22]: > 72700 nM | TGI [22]: > 100000 nM | GI50 [23]: 23.8 nM | TGI [23]: 147 nM | GI50 [24]: 420 nM | TGI [24]: > 100000 nM | GI50 [25]: 388 nM | TGI [25]: > 100000 nM | GI50 [26]: 53.1 nM | TGI [26]: > 49200 nM | GI50 [27]: 305 nM | TGI [27]: > 100000 nM | GI50 [28]: 106 nM | TGI [28]: 554 nM | GI50 [29]: 98.9 nM | TGI [29]: > 42200 nM | GI50 [30]: 46.3 nM | TGI [30]: > 100000 nM | GI50 [31]: 71.7 nM | TGI [31]: > 100000 nM | GI50 [32]: 199 nM | TGI [32]: > 100000 nM | GI50 [33]: 194 nM | TGI [33]: > 100000 nM | GI50 [34]: 70.5 nM | TGI [34]: > 100000 nM | GI50 [35]: 771 nM | TGI [35]: > 100000 nM | GI50 [36]: 198 nM | TGI [36]: 640 nM | GI50 [37]: 416 nM | TGI [37]: > 100000 nM | GI50 [38]: 104 nM | TGI [38]: > 100000 nM | GI50 [39]: 377 nM | TGI [39]: > 100000 nM | GI50 [40]: 426 nM | TGI [40]: > 100000 nM | GI50 [41]: 79.9 nM | TGI [41]: > 100000 nM | GI50 [42]: 50.5 nM | TGI [42]: > 100000 nM | GI50 [43]: 298 nM | TGI [43]: > 100000 nM | GI50 [44]: 232 nM | TGI [44]: > 100000 nM | GI50 [45]: 69.2 nM | TGI [45]: > 100000 nM | GI50 [46]: 511 nM | TGI [46]: > 100000 nM | GI50 [47]: 537 nM | TGI [47]: > 100000 nM | GI50 [48]: 27600 nM | TGI [48]: > 100000 nM | GI50 [49]: 199 nM | TGI [49]: > 100000 nM | GI50 [50]: 110 nM | GI50 [51]: 29700 nM | TGI [51]: > 100000 nM | GI50 [52]: 48.7 nM | TGI [53]: > 100000 nM | GI50 [54]: 31.6 nM | TGI [54]: 109 nM | GI50 [55]: 282 nM | TGI [55]: > 100000 nM | GI50 [56]: 66.3 nM | TGI [56]: > 100000 nM | GI50 [57]: 498 nM | TGI [57]: > 100000 nM | GI50 [58]: 157 nM | TGI [58]: > 100000 nM
